Reference: patent US12679824B2 (Hoffmann-La Roche Inc., priority 2020, dated 2026)
Read-outs that look alike come from different tables or passages of the source.

Tested on: Acinetobacter baumannii ATCC17961
Test: 90% Growth Inhibitory Concentration (IC90) determination, antimicrobial susceptibility testing
Format: cell-based
Conditions: Acinetobacter baumannii, ATCC17961, 16 h, read-out: ATCC 17961 IC90
Experimental: Antimicrobial Susceptibility Testing:
90% Growth Inhibitory Concentration (IC90) Determination
The in vitro antimicrobial activity of the compounds was determined according to the following procedure:
The assay used a 10-points Iso-Sensitest broth medium to measure quantitatively the in vitro activity of the compounds against Acinetobacter baumannii ATCC17961.
Stock compounds in DMSO were serially twofold diluted (e.g. range from 50 to 0.097 μM final concentration) in 384 wells microtiter plates and inoculated with 49 μl the bacterial suspension in Iso-Sensitest medium to have a final cell concentration of ~5×10^(5) CFU/ml in a final volume/well of 50 ul/well. Microtiter plates were incubated at 35±2° C.
Bacterial cell growth was determined with the measurement of optical density at λ=600 nm each 20 minutes over a time course of 16h. Growth inhibition was calculated during the logarithmic growth of the bacterial cells with determination of the concentration inhibiting 50% (IC50) and 90% (IC90) of the growth.
Table 1 provides the 90% growth inhibitory concentrations (IC90) in micromoles per liter of the compounds of present invention obtained against the strain Acinetobacter baumannii ATCC17961.

[1] = Acinetobacter baumannii ATCC17961, Iso-Sensitest broth, growth by optical density at 600 nm over 16h, concentration inhibiting 90% of the growth

Compound: COCCn1cnc(-n2cc(-c3cnc(C(=O)Nc4ccc(C(=O)N5CCN(C(=O)C6CCNCC6)CC5)c(Cl)c4)n3C)c(C(F)(F)F)n2)c1 [Example E3, N-[3-chloro-4-[4-(piperidine-4-carbonyl)piperazine-1-carbonyl]phenyl]-5-[1-[1-(2-methoxyethyl)imidazol-4-yl]-3-(trifluoromethyl)pyrazol-4-yl]-1-methyl-imidazole-2-carboxamide]
- IC90 [1]: 500 nM

Compound: Cn1cnc(-n2cc(-c3cnc(C(=O)Nc4ccc(C(=O)N5CCN(C(=O)C6CCNCC6)CC5)c(Cl)c4)n3C)c(C(F)(F)F)n2)c1 [Example E4, N-[3-chloro-4-[4-(piperidine-4-carbonyl)piperazine-1-carbonyl]phenyl]-1-methyl-5-[1-(1-methylimidazol-4-yl)-3-(trifluoromethyl)pyrazol-4-yl]imidazole-2-carboxamide]
- IC90 [1]: 680 nM

Compound: Cc1[nH]ncc1-n1cc(-c2cnc(C(=O)Nc3ccc(C(=O)N4CCN(C(=O)C5CCNCC5)CC4)c(Cl)c3)n2C)c(C(F)(F)F)n1 [Example E5, N-[3-chloro-4-[4-(piperidine-4-carbonyl)piperazine-1-carbonyl]phenyl]-1-methyl-5-[1-(5-methyl-1H-pyrazol-4-yl)-3-(trifluoromethyl)pyrazol-4-yl]imidazole-2-carboxamide]
- IC90 [1]: 1400 nM

Compound: Cc1ccc(-n2cc(-c3cnc(C(=O)Nc4ccc(C(=O)N5CCN(C(=O)C6CCNCC6)CC5)c(Cl)c4)n3C)c(C(F)(F)F)n2)nc1 [Example E6, N-[3-chloro-4-[4-(piperidine-4-carbonyl)piperazine-1-carbonyl]phenyl]-1-methyl-5-[1-(5-methyl-2-pyridyl)-3-(trifluoromethyl)pyrazol-4-yl]imidazole-2-carboxamide]
- IC90 [1]: 350 nM

Compound: Cn1c(-c2cn(-c3ncccn3)nc2C(F)(F)F)cnc1C(=O)Nc1ccc(C(=O)N2CCN(C(=O)[C@H]3[C@@H]4CNC[C@@H]43)CC2)c(Cl)c1 [Example F1, N-[4-[4-[(1R,5S)-3-Azabicyclo[3.1.0]hexane-6-carbonyl]piperazine-1-carbonyl]-3-chloro-phenyl]-1-methyl-5-[1-pyrimidin-2-yl-3-(trifluoromethyl)pyrazol-4-yl]imidazole-2-carboxamide]
- IC90: 450 nM

Compound: COc1ccc(-n2cc(-c3cnc(C(=O)Nc4ccc(C(=O)N5CCN(C(=O)[C@@H]6CCNC[C@H]6O)CC5)c(Cl)c4)n3C)c(C(F)(F)F)n2)nc1 [Example F4, N-[3-chloro-4-[4-[(3S,4R)-3-hydroxypiperidine-4-carbonyl]piperazine-1-carbonyl]phenyl]-5-[1-(5-methoxy-2-pyridyl)-3-(trifluoromethyl)pyrazol-4-yl]-1-methyl-imidazole-2-carboxamide]
- IC90 [1]: 310 nM

Compound: Cn1c(-c2cn(-c3ncccn3)nc2C(F)(F)F)cnc1C(=O)Nc1ccc(C(=O)N2CCN(C(=O)C3CCN(CC4CNC4)CC3)CC2)c(Cl)c1 [Example G1, N-[4-[4-[1-(Azetidin-3-ylmethyl)piperidine-4-carbonyl]piperazine-1-carbonyl]-3-chloro-phenyl]-1-methyl-5-[1-pyrimidin-2-yl-3-(trifluoromethyl)pyrazol-4-yl]imidazole-2-carboxamide]
- IC90: 390 nM

Compound: Cn1c(-c2cn(-c3ccc(N)cn3)nc2C(F)(F)F)cnc1C(=O)Nc1ccc(C(=O)N2CCC(C(=O)N3CCNCC3)CC2)c(Cl)c1 [Example H1, 5-[1-(5-Amino-2-pyridyl)-3-(trifluoromethyl)pyrazol-4-yl]-N-[3-chloro-4-[4-(piperazine-1-carbonyl)piperidine-1-carbonyl]phenyl]-1-methyl-imidazole-2-carboxamide]
- IC90: 480 nM

Compound: Cn1c(-c2cn(-c3ccc(N)cn3)nc2C(F)(F)F)cnc1C(=O)Nc1ccc(C(=O)N2CCC(C(=O)N3CCNC(CO)C3)CC2)c(Cl)c1 (stereo not drawn) [Example H2, 5-[1-(5-amino-2-pyridyl)-3-(trifluoromethyl)pyrazol-4-yl]-N-[3-chloro-4-[4-[3-(hydroxymethyl)piperazine-1-carbonyl]piperidine-1-carbonyl]phenyl]-1-methyl-imidazole-2-carboxamide]
- IC90 [1]: 880 nM
